Measured values published in US9346815B2, “5-chloro-2-difluoromethoxyphenyl pyrazolopyrimidine compounds, compositions and methods of use thereof” (Genentech, Inc., priority 2014, dated 2016).
Counter-ions that a name gives are not always drawn. Like-named read-outs stand apart in the source and are kept apart here.

Columns and labels:
[1] = tested on: JAK1-dependent STAT6 phosphorylation downstream of IL-13 stimulation in TF-1 human erythroleukemia cells; experiment: JAK1 pathway assay in TF-1 cells (IL-13-pSTAT6, MSD); format: cell-based; details: read-out: IL13-pSTAT6 EC50_TF-1
Procedure, shortened: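 Compound preincubation lasted 1 hr for BEAS-2B cells in complete growth medium and 30 min for GM-CSF-starved TF-1 cells in serum-free medium. EC50 values were determined.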

[2] = target: isolated recombinant JAK1 kinase domain (Homo sapiens (Human), UniProt P23458); experiment: JAK1 enzyme assay (Caliper LabChip, peptide phosphorylation); format: biochemical; details: isolated recombinant JAK1 kinase domain, 25 μM ATP
[3] = target: isolated recombinant JAK2 kinase domain (Homo sapiens (Human), UniProt O60674); experiment: JAK2 enzyme assay (Caliper LabChip, peptide phosphorylation); format: biochemical; details: 25 μM ATP
Sequence of isolated recombinant JAK2 kinase domain (O60674 849-1124): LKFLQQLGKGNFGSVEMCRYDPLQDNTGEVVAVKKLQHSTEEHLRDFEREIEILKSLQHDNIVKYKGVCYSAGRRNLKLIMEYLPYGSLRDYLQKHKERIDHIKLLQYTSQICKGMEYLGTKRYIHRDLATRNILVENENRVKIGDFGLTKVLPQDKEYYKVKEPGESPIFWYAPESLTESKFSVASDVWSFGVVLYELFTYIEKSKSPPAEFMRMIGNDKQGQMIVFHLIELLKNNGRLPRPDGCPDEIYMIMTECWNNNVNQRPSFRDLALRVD

Sequence of isolated recombinant JAK1 kinase domain (P23458 875-1153): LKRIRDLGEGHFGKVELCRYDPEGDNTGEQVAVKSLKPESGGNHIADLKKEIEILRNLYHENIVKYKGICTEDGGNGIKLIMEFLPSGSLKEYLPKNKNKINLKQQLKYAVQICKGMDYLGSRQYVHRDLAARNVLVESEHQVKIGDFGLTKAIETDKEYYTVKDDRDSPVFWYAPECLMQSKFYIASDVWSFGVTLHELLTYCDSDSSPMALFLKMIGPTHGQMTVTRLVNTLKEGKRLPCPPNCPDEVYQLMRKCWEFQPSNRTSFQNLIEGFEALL

Row | Structure (SMILES) | EC50 ([1]; Homo sapiens, TF-1, TF-1 cells) [nM] | Ki [2] [nM] | Ki [3] [nM] | EC50 ([1]; TF-1 cells) [nM]
1 | N#CC1(CN2C[C@@H]3CN(C(=O)Cn4cc(NC(=O)c5cnn6cccnc56)c(-c5cc(Cl)ccc5OC(F)F)n4)C[C@@H]3C2)CCCCC1 [Example 47, N-[1-[2-[(3aS,6aR)-2-[(1-cyanocyclohexyl)methyl]-1,3,3a,4,6,6a-hexahydropyrrolo[3,4-c]pyrrol-5-yl]-2-oxo-ethyl]-3-[5-chloro-2-(difluoromethoxy)phenyl]pyrazol-4-yl]pyrazolo[1,5-a]pyrimidine-3-carboxamide] | 11 | 0.33 | 0.54 | –
2 | COCCN(C)C1CCN(C(=O)Cn2cc(NC(=O)c3c(N)nn4cccnc34)c(-c3cc(Cl)ccc3OC(F)F)n2)CC1 [Example 141, 2-amino-N-[3-[5-chloro-2-(difluoromethoxy)phenyl]-1-[2-[4-[2-methoxy-ethyl(methyl)amino]-1-piperidyl]-2-oxo-ethyl]pyrazol-4-yl]pyrazolo[1,5-a]pyrimidine-3-carboxamide] | 15 | 0.68 | 0.59 | –
3 | CN1C[C@@H]2CN(C(=O)Cn3cc(NC(=O)c4cnn5cccnc45)c(-c4cc(Cl)ccc4OC(F)F)n3)C[C@]2(c2ccccc2)C1 [Example 44, N-[1-[2-[(3aR,6aR)-2-methyl-3a-phenyl-3,4,6,6a-tetrahydro-1H-pyrrolo[3,4-c]pyrrol-5-yl]-2-oxo-ethyl]-3-[5-chloro-2-(difluoromethoxy)phenyl]pyrazol-4-yl]pyrazolo[1,5-a]pyrimidine-3-carboxamide] | – | 0.54 | 0.22 | 6.7
4 | O=C(Nc1cn(CC(=O)N2CCC(NCCc3ccccc3)CC2)nc1-c1cc(Cl)ccc1OC(F)F)c1cnn2cccnc12 [Example 89, N-[3-[5-chloro-2-(difluoromethoxy)phenyl]-1-[2-oxo-2-[4-(2-phenylethylamino)-1-piperidyl]ethyl]pyrazol-4-yl]pyrazolo[1,5-a]pyrimidine-3-carboxamide] | 22.7 | 0.88 | 1.45 | –
5 | O=C(Nc1cn(CC(=O)N2CCC(N3CCCC3)CC2)nc1-c1cc(Cl)ccc1OC(F)F)c1cnn2cccnc12 [Example 69, N-[3-[5-chloro-2-(difluoromethoxy)phenyl]-1-[2-oxo-2-(4-pyrrolidin-1-yl-1-piperidyl)ethyl]pyrazol-4-yl]pyrazolo[1,5-a]pyrimidine-3-carboxamide] | 20.4 | 0.86 | 2.45 | –
6 | CS(=O)(=O)CCN1C[C@@H]2CN(C(=O)Cn3cc(NC(=O)c4cnn5cccnc45)c(-c4cc(Cl)ccc4OC(F)F)n3)C[C@@H]2C1 [Example 31, N-[1-[2-[(3aS,6aR)-2-(2-methylsulfonylethyl)-1,3,3a,4,6,6a-hexahydropyrrolo[3,4-c]pyrrol-5-yl]-2-oxo-ethyl]-3-[5-chloro-2-(difluoromethoxy)phenyl]pyrazol-4-yl]pyrazolo[1,5-a]pyrimidine-3-carboxamide] | 102 | 0.37 | 0.53 | –
7 | CN1C[C@@H]2CN(C(=O)Cn3cc(NC(=O)c4cnn5ccc(N)nc45)c(-c4cc(Cl)ccc4OC(F)F)n3)C[C@@H]2C1 [Example 7, 5-Amino-pyrazolo[1,5-a]pyrimidine-3-carboxylic acid {3-(5-chloro-2-difluoromethoxy-phenyl)-1-[2-((3aR,6aS)-5-methyl-hexahydro-pyrrolo[3,4-c]pyrrol-2-yl)-2-oxo-ethyl]-1H-pyrazol-4-yl}-amide hydrochloride] | 1040 | 1.1 | 0.96 | –
8 | O=C(Nc1cn(CC(=O)N2C[C@H]3CN(CCOCc4ccc(Cl)cc4)C[C@H]3C2)nc1-c1cc(Cl)ccc1OC(F)F)c1cnn2cccnc12 [Example 60, N-[1-[2-[(3aR,6aS)-2-[2-[(4-chlorophenyl)methoxy]ethyl]-1,3,3a,4,6,6a-hexahydropyrrolo[3,4-c]pyrrol-5-yl]-2-oxo-ethyl]-3-[5-chloro-2-(difluoromethoxy)phenyl]pyrazol-4-yl]pyrazolo[1,5-a]pyrimidine-3-carboxamide] | 46.2 | 1.1 | 0.7 | –
9 | CCNC1CCN(C(=O)Cn2cc(NC(=O)c3c(N)nn4cccnc34)c(-c3cc(Cl)ccc3OC(F)F)n2)CC1 [Example 75, 2-amino-N-[3-[5-chloro-2-(difluoromethoxy)phenyl]-1-[2-[4-(ethylamino)-1-piperidyl]-2-oxo-ethyl]pyrazol-4-yl]pyrazolo[1,5-a]pyrimidine-3-carboxamide] | 78.7 | 0.66 | 0.61 | –
10 | O=C(Nc1cn(CC(=O)N2C[C@H]3CN(CC4CC4)C[C@H]3C2)nc1-c1cc(Cl)ccc1OC(F)F)c1cnn2cccnc12 [Example 6, Cis-pyrazolo[1,5-a]pyrimidine-3-carboxylic acid {3-(5-chloro-2-difluoromethoxyphenyl)-1-[2-(5-cyclopropylmethylhexahydropyrrolo[3,4-c]pyrrol-2-yl)-2-oxoethyl]-1H-pyrazol-4-yl}amide] | 5.9 | 0.71 | 0.75 | –
11 | O=C(Nc1cn(CC(=O)N2CCC(N(CCc3ccccc3)CC(F)(F)F)CC2)nc1-c1cc(Cl)ccc1OC(F)F)c1cnn2cccnc12 [Example 103, N-[3-[5-chloro-2-(difluoromethoxy)phenyl]-1-[2-oxo-2-[4-[2-phenylethyl(2,2,2-trifluoroethyl)amino]-1-piperidyl]ethyl]pyrazol-4-yl]pyrazolo[1,5-a]pyrimidine-3-carboxamide] | 265 | 3.98 | 7.95 | –
12 | O=C(Nc1cn(CC(=O)N2C[C@H]3CN(CC4(O)CCCCC4)C[C@H]3C2)nc1-c1cc(Cl)ccc1OC(F)F)c1cnn2cccnc12 [Example 46, N-[1-[2-[(3aS,6aR)-2-[(1-hydroxycyclohexyl)methyl]-1,3,3a,4,6,6a-hexahydropyrrolo[3,4-c]pyrrol-5-yl]-2-oxo-ethyl]-3-[5-chloro-2-(difluoromethoxy)phenyl]pyrazol-4-yl]pyrazolo[1,5-a]pyrimidine-3-carboxamide] | 8.2 | 0.58 | 0.7 | –
13 | O=C(Nc1sc(N2CCN(CC(F)(F)F)CC2)nc1-c1cc(Cl)ccc1OC(F)F)c1cnn2cccnc12 [Example 208, N-[4-[5-chloro-2-(difluoromethoxy)phenyl]-2-[4-(2,2,2-trifluoroethyl)piperazin-1-yl]thiazol-5-yl]pyrazolo[1,5-a]pyrimidine-3-carboxamide] | 33.5 | 1.38 | 1.08 | –
14 | CN1CC[C@@H]2[C@@H](CCN2C(=O)Cn2cc(NC(=O)c3cnn4cccnc34)c(-c3cc(Cl)ccc3OC(F)F)n2)C1 [Example 24, N-[1-[2-[(3aS,7aR)-5-methyl-3,3a,4,6,7,7a-hexahydro-2H-pyrrolo[3,2-c]pyridin-1-yl]-2-oxo-ethyl]-3-[5-chloro-2-(difluoromethoxy)phenyl]pyrazol-4-yl]pyrazolo[1,5-a]pyrimidine-3-carboxamide] | 4.9 | 0.78 | 2.02 | –
15 | COCCCN1C[C@@H]2CN(C(=O)Cn3cc(NC(=O)c4cnn5cccnc45)c(-c4cc(Cl)ccc4OC(F)F)n3)C[C@@H]2C1 [Example 38, N-[1-[2-[(3aR,6aS)-2-(3-methoxypropyl)-1,3,3a,4,6,6a-hexahydropyrrolo[3,4-c]pyrrol-5-yl]-2-oxo-ethyl]-3-[5-chloro-2-(difluoromethoxy)phenyl]pyrazol-4-yl]pyrazolo[1,5-a]pyrimidine-3-carboxamide] | 8.5 | 0.88 | 0.78 | –
16 | O=C(Nc1cn(C2CCNCC2)nc1-c1cc(Cl)ccc1OC(F)F)c1cnn2cccnc12 [Example 1, Pyrazolo[1,5-a]pyrimidine-3-carboxylic acid [3-(5-chloro-2-difluoromethoxyphenyl)-1-piperidin-4-yl-1H-pyrazol-4-yl]amide hydrochloride] | 21.1 | 1.62 | 0.46 | –
17 | CN(C)CC1(O)CCN(C(=O)Cn2cc(NC(=O)c3cnn4cccnc34)c(-c3cc(Cl)ccc3OC(F)F)n2)CC1 [Example 74, N-[3-[5-chloro-2-(difluoromethoxy)phenyl]-1-[2-[4-[(dimethylamino)methyl]-4-hydroxy-1-piperidyl]-2-oxo-ethyl]pyrazol-4-yl]pyrazolo[1,5-a]pyrimidine-3-carboxamide] | 38.5 | 0.97 | 2.42 | –
18 | Nc1nn2cccnc2c1C(=O)Nc1cn(C2CCN(Cc3ccccc3)CC2)nc1-c1cc(Cl)ccc1OC(F)F [Example 178, 2-amino-N-[1-(1-benzyl-4-piperidyl)-3-[5-chloro-2-(difluoromethoxy)phenyl]pyrazol-4-yl]pyrazolo[1,5-a]pyrimidine-3-carboxamide] | 83.9 | 1.23 | 0.43 | –
19 | CN(C)C1CCN(C(=O)Cn2cc(NC(=O)c3c(N)nn4cccnc34)c(-c3cc(Cl)ccc3OC(F)F)n2)C1 (stereo not drawn) [Example 136, 2-amino-N-[3-[5-chloro-2-(difluoromethoxy)phenyl]-1-[2-[3-(dimethylamino)pyrrolidin-1-yl]-2-oxo-ethyl]pyrazol-4-yl]pyrazolo[1,5-a]pyrimidine-3-carboxamide] | 36.7 | 0.64 | 0.25 | –
20 | CN1CCCN(C(=O)Cn2cc(NC(=O)c3c(N)nn4cccnc34)c(-c3cc(Cl)ccc3OC(F)F)n2)CC1 [Example 246, 2-amino-N-[3-[5-chloro-2-(difluoromethoxy)phenyl]-1-[2-(4-methyl-1,4-diazepan-1-yl)-2-oxo-ethyl]pyrazol-4-yl]pyrazolo[1,5-a]pyrimidine-3-carboxamide] | 48.8 | 1.08 | 0.57 | –
